# Measurements reported in ChEMBL document CHEMBL4177571, “Synthesis and biological evaluation of a new series of cinnamic acid amide derivatives as potent haemostatic agents containing a 2-aminothiazole substructure” (Bioorg Med Chem Lett, 2017).
# Experiments:
# [1] = Thermal stability of the compound at 150 degC by thermogravimetric assay; format: physicochemical
# Plasma [2] = test: Inhibition of ADP-induced platelet aggregation in human plasma; format: functional
# Plasma [3] = test: Haemostatic activity in human plasma assessed as change in rate of prothrombin time at 1 uM after 3 mins by thromboplastic agent based assay relative to control; format: functional
# Plasma [4] = test: Haemostatic activity in human plasma assessed as change in rate of prothrombin time at 5 uM after 3 mins by thromboplastic agent based assay relative to control; format: functional
# Plasma [5] = test: Haemostatic activity in human plasma assessed as change in rate of prothrombin time at 10 uM after 3 mins by thromboplastic agent based assay relative to control; format: functional
# Plasma [6] = test: Haemostatic activity in human plasma assessed as change in rate of prothrombin time at 50 uM after 3 mins by thromboplastic agent based assay relative to control; format: functional
# Plasma [7] = test: Haemostatic activity in human plasma assessed as change in rate of prothrombin time at 100 uM after 3 mins by thromboplastic agent based assay relative to control; format: functional
# Plasma [8] = test: Haemostatic activity in human plasma assessed as change in rate of activated partial thromboplastin time at 1 uM after 3 mins relative to control; format: functional
# Plasma [9] = test: Haemostatic activity in human plasma assessed as change in rate of activated partial thromboplastin time at 5 uM after 3 mins relative to control; format: functional
# Plasma [10] = test: Haemostatic activity in human plasma assessed as change in rate of activated partial thromboplastin time at 10 uM after 3 mins relative to control; format: functional
# Plasma [11] = test: Haemostatic activity in human plasma assessed as change in rate of activated partial thromboplastin time at 50 uM after 3 mins relative to control; format: functional
# Plasma [12] = test: Haemostatic activity in human plasma assessed as change in rate of activated partial thromboplastin time at 100 uM after 3 mins relative to control; format: functional
# Plasma [13] = test: Haemostatic activity in human plasma assessed as change in rate of thrombin time at 1 uM after 3 mins by thrombin agent based assay relative to control; format: functional
# Plasma [14] = test: Haemostatic activity in human plasma assessed as change in rate of thrombin time at 5 uM after 3 mins by thrombin agent based assay relative to control; format: functional
# Plasma [15] = test: Haemostatic activity in human plasma assessed as change in rate of thrombin time at 10 uM after 3 mins by thrombin agent based assay relative to control; format: functional
# Plasma [16] = test: Haemostatic activity in human plasma assessed as change in rate of thrombin time at 50 uM after 3 mins by thrombin agent based assay relative to control; format: functional
# Plasma [17] = test: Haemostatic activity in human plasma assessed as change in rate of thrombin time at 100 uM after 3 mins by thrombin agent based assay relative to control; format: functional
Compound,Stability [1],IC50 (Plasma [2]),Activity (Plasma [3]),Activity (Plasma [4]),Activity (Plasma [5]),Activity (Plasma [6]),Activity (Plasma [7]),Activity (Plasma [8]),Activity (Plasma [9]),Activity (Plasma [10]),Activity (Plasma [11]),Activity (Plasma [12]),Activity (Plasma [13]),Activity (Plasma [14]),Activity (Plasma [15]),Activity (Plasma [16]),Activity (Plasma [17])
COc1ccc(/C=C/C(=O)Nc2nccs2)cc1OC,Stable,54.5 µM,-1.7%,0.28%,-0.22%,-1.49%,-2.99%,-0.14%,-6.47%,-1.41%,-0.56%,1.97%,-14.62%,-16.04%,-22.41%,-23.82%,-14.62%
COc1ccc(/C=C/C(=O)Nc2nccs2)cc1,Stable,73.7 µM,-1.51%,-2.27%,0%,-0.75%,-6.75%,-1.28%,-2.7%,0.14%,0.28%,-0.71%,-6.54%,-7.51%,-8.23%,-13.8%,-16.95%
CC(=O)Oc1ccc(/C=C/C(=O)Nc2nccs2)cc1,Stable,58.1 µM,-3.2%,-4.4%,-5.29%,-4.3%,1.2%,-1.68%,-3.1%,-3.88%,-2.71%,-2.45%,-11.45%,-14.54%,-22.03%,-21.15%,-6.39%
CC(=O)Oc1ccc(/C=C/C(=O)Nc2nccs2)cc1OC(C)=O,Stable,75.6 µM,-4.3%,-4.09%,-1.36%,-1.68%,-3.88%,-2.94%,-6%,-2.94%,-2.04%,0%,-13.94%,-30.77%,-28.13%,-27.89%,-15.63%
Nc1nccs1 [AMINOTHIAZOLE],–,202 µM,-6.63%,-4.91%,-2.84%,-5.17%,-5.43%,-3.71%,-2%,-0.43%,0%,2.53%,-3.53%,-5.06%,-6.47%,-5.41%,-3.53%

# Now those with a lower IC50 (Plasma [2]), led by results:
Stability [1],IC50 (Plasma [2]),Compound,Activity (Plasma [3]),Activity (Plasma [4]),Activity (Plasma [5]),Activity (Plasma [6]),Activity (Plasma [7]),Activity (Plasma [8]),Activity (Plasma [9]),Activity (Plasma [10]),Activity (Plasma [11]),Activity (Plasma [12]),Activity (Plasma [13]),Activity (Plasma [14]),Activity (Plasma [15]),Activity (Plasma [16]),Activity (Plasma [17])
–,46.2 µM,O=S(=O)(O)c1cc(O)ccc1O [ETHAMSYLATE],–,–,–,–,–,–,–,–,–,–,–,–,–,–,–
Stable,45.1 µM,O=C(CCc1ccccc1)Nc1nccs1,-0.56%,-2.44%,-3.19%,-2.81%,0%,1%,-2.42%,-1.85%,-1.56%,0.28%,-3.15%,-4.6%,-5.33%,-7.02%,-7.93%
Stable,36.6 µM,O=C(/C=C/c1ccccc1)Nc1nccs1,-5.69%,-7.09%,-5.59%,-4.4%,-3.7%,-4.78%,-5.81%,-9.95%,-6.72%,-2.71%,-7.93%,-10.79%,-11.23%,-13.66%,-9.69%
Stable,35.5 µM,CC(=O)Oc1cccc(/C=C/C(=O)Nc2nccs2)c1,-0.1%,-1.05%,-0.73%,-0.42%,-0.84%,-4.64%,-6.57%,-10.19%,-9.06%,-8.61%,-5.05%,-7.21%,-15.39%,-19.95%,-21.64%
Stable,25.5 µM,COc1cc(/C=C/C(=O)Nc2nccs2)ccc1OC(C)=O,-1.98%,-2.24%,-4.39%,-5.77%,-7.32%,-1.14%,-2.57%,-3.42%,-6.28%,-1.85%,-5.76%,-7.88%,-13.06%,-12.35%,-11.06%
Stable,18.1 µM,COc1cc(/C=C/C(=O)Nc2nccs2)cc(OC)c1OC,0.56%,-0.95%,3.22%,0.55%,2.55%,0.56%,1.55%,2.25%,1.96%,1.69%,-29.01%,-22.17%,-10.14%,-21.7%,-50.24%
Stable,1.87 µM,CC(=O)Oc1ccccc1/C=C/C(=O)Nc1nccs1,-1.68%,-3.25%,-4.62%,-2.2%,-1.78%,-5.55%,-9.51%,-8.61%,-8.15%,-6.12%,-2.4%,-13.46%,-21.39%,-26.2%,-21.88%
